Consider two sequences from patent US20230331780A1, “COMPOSITIONS AND METHODS FOR THE TREATMENT OF ALZHEIMER'S DISEASE” (The Trustees of Columbia University in the City of New York, priority 2020, published 2023).

Test [1] relates to endogenous Amyloid-beta 1-42 in 5×FAD mice. Nature of the test: endogenous amyloid-beta 1-42 in brains of 5×FAD mice. Type of test: in vivo, mouse. The settings on record: ICV via osmotic mini pump, 28 days, versus vehicle, FIG. 5A/5B. The source says: Fourth, by leveraging a second in vivo model of microglia-mediated amyloid uptake in the mouse brain, and using osmotic mini pumps implanted subcutaneously to deliver the peptide through a catheter connected to the brain ventricles, it was shown that the inhibitory peptide SEQ ID NO:1 (peptide #1) reduces the amount of endogenous amyloid-beta 1-42 detectable in the brains of 5×FAD animals (FIG. 5A and FIG. 5B). 5×FAD mice express human APP and PSEN1 transgenes that include five AD-linked mutations. These mice recapitulate many AD-related phenotypes and have a relatively early and aggressive presentation. Amyloid plaques, accompanied by gliosis, are seen in mice as young as two months of age. Neuron loss occurs in multiple brain regions, beginning at about 6 months in the areas with the most pronounced amyloidosis. Mice display a range of cognitive and motor deficits.
Peptide was directly administered to the brain via a mini osmotic pump implanted subcutaneously and connected to the brain ventricles through a catheter for continuous drug delivery. By the end of the treatment (28 days), brain sections were generated and analyzed by confocal microscope. A representative image from an animal in each of the three groups is shown (FIG. 5A). Quantification of E610 immunoreactivity in the hippocampus, reflective Amyloid-beta 1-42 levels, from the three mouse groups is shown.

In test [2] the test system is exogenous Amyloid-beta 1-42 in mouse brain. Nature of the test: exogenous amyloid-beta 1-42 clearance in mouse brain, peptide delivered to brain ventricles by osmotic mini pump. Conditions: ICV via osmotic mini pump, 10 uM solution, approx. 3 ug/kg daily, 28 days, Amyloid-beta 647, confocal microscopy, FIG. 3A/3B. The class given is in vivo. Here is the method:
Third, by leveraging an in vivo model of microglia-mediated amyloid uptake in the mouse brain, and using osmotic mini pumps implanted subcutaneously to deliver the peptide through a catheter connected to the brain ventricles, it was shown that the inhibitory peptide SEQ ID NO:1 (peptide #1) reduces the amount of exogenous amyloid-beta 1-42 detectable in the brains of animals (FIG. 3A and FIG. 3B). 10 uM peptide solutions, containing SEQ ID NO: 1 (peptide #1) or SEQ ID NO: 2 (peptide #4), were added to osmotic mini pumps to permit daily delivery of approximately 5 ul of dosing solution or 3 ug/kg of peptide. A fluorescently labelled analog of amyloid beta 1-42 (Amyloid-beta 647) was delivered via ICV infusion. Confocal microscopy was later used to quantify signal in hippocampal sections. […] By the end of the treatment (28 days), brain sections were performed and analyzed by confocal microscope.
Hippocampus areas are shown of the three treated mice (FIG. 3A). Quantification of Amyloid-beta 1-42 in the hippocampus from the three mouse groups are shown with a marked decrease of Amyloid-beta 1-42 in mice that received Peptide #1 but not those that were treated with Peptide #4 (FIG. 3B). […] By the end of the treatment (28 days), brain sections were analyzed by confocal microscope.

The next test has as its target T1, CD45 phosphatase (Homo sapiens, UniProt P08575).
T1 construct: endogenous in cells; host or cells: THP1 cells
T1 sequence (P08575 26-1306): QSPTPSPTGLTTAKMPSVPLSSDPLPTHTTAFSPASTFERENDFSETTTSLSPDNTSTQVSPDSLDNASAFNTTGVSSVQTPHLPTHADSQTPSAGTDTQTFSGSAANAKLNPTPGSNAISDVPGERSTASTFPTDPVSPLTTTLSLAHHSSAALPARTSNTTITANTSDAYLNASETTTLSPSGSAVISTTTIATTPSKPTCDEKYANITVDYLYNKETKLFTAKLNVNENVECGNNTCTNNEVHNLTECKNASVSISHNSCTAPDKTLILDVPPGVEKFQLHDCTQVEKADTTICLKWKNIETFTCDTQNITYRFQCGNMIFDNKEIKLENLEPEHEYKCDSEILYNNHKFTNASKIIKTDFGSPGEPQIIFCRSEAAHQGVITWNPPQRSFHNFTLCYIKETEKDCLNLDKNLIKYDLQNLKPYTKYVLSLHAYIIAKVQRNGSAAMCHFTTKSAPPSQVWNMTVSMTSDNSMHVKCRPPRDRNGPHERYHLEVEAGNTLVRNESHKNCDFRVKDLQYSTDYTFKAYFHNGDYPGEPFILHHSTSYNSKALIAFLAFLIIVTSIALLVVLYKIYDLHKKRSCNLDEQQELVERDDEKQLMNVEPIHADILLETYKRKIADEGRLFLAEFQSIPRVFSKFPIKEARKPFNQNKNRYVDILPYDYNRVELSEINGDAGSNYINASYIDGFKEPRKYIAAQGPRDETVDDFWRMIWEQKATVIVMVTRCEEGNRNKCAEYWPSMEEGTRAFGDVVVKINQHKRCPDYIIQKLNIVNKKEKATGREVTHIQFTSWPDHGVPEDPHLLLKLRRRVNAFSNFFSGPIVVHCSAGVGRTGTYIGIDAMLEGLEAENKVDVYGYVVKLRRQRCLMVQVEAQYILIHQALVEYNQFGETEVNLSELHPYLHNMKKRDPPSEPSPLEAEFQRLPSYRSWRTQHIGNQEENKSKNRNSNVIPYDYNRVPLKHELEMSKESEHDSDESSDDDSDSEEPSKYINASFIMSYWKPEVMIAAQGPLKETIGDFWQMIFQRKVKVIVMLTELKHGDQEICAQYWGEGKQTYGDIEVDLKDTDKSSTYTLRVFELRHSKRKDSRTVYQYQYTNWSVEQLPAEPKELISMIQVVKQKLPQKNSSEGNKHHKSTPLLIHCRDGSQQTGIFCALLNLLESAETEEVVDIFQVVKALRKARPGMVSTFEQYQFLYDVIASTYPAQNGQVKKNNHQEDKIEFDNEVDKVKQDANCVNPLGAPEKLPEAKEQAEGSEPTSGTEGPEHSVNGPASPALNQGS
Nature of the test: CD45 phosphatase activity in THP1 cells. The class given is cell-based. The settings on record: peptide added to THP1 cells; FIG. 2.

In test [3] the target is T2, interaction between CD33 and CD45 (Homo sapiens, UniProt P08575).
T2 construct: in the human myeloid cell line THP1 using the proximity ligation assay; endogenous in cells; host or cells: THP1 (human myeloid cell line)
T2 sequence (P08575 26-1306): T1 sequence (P08575 26-1306)
Nature of the test: proximity ligation assay of CD33-CD45 interaction in THP1 cells. Type of test: cell-based. The settings on record: human myeloid cell line THP1; peptide 0-0.1 mM; FIG. 1. The source says:
To test if the binding interaction between CD33 and any of its ligands is involved in AD pathogenesis, a 12-mer peptide (RMESKTEKWMER; SEQ ID NO: 1) was designed based on the structure of the sialic-acid binding domain of siglecs (Sialic acid-binding immunoglobulin-type lectins).

In test [4] the test system is exogenous Amyloid-beta 1-42 in mouse brain. Nature of the test: exogenous amyloid-beta 1-42 clearance in mouse brain, peptide delivered subcutaneously. Type of test: in vivo. Conditions: peptide subcutaneous via pump, A-beta ICV, 28 days, confocal microscopy, FIG. 4. Here is the method: Hippocampus areas are shown of the three treated mice (FIG. 3A). Quantification of Amyloid-beta 1-42 in the hippocampus from the three mouse groups are shown with a marked decrease of Amyloid-beta 1-42 in mice that received Peptide #1 but not those that were treated with Peptide #4 (FIG. 3B). […] The fluorescent labelled A-beta (red) was directly administered to the brain via a mini osmotic pump implanted subcutaneously and connected to the brain ventricles through a catheter for continuous drug delivery. The peptide (SEQ ID NO: 1) was delivered subcutaneously via another pump. By the end of the treatment (28 days), brain sections were analyzed by confocal microscope.

The subject of test [5] is NeuN positive neurons in Layer 5 of the piriform cortex. Nature of the test: neuronal survival in 5×FAD mice given exogenous Amyloid-beta 1-42. The class given is in vivo, mouse. The settings on record: 5×FAD mice treated with exogenous Amyloid-beta 1-42; ICV via osmotic mini pump, 28 days; FIG. 6. The source says:
Fifth, in a modified version of this second in vivo model of Alzheimer's Disease, and using osmotic mini pumps implanted subcutaneously to deliver the peptide through a catheter connected to the brain ventricles, it was shown that the inhibitory peptide SEQ ID NO:1 (peptide #1) reduces neuronal loss in transgenic 5×FAD animals treated with exogenous Amyloid-beta 1-42 (FIG. 6). […] Peptide was directly administered to the brain via a mini osmotic pump implanted subcutaneously and connected to the brain ventricles through a catheter for continuous drug delivery. By the end of the treatment (28 days), brain sections were generated and analyzed by confocal microscope. Quantification of NeuN immunoreactivity in Layer 5 of the piriform cortex, reflective of neuronal number, from the three mouse groups is shown.

On to RMESKTEKWMER [SEQ ID NO: 1], for which the “amount of endogenous Amyloid-beta 1-42 (E610 immunoreactivity in hippocampus)” value in test [1] is “decreases the amount of endogenous Amyloid-beta 1-42 in vivo”. Moreover, the “amount of exogenous Amyloid-beta 1-42 in hippocampus” value in test [2] is “decreases the amount of exogenous Amyloid-beta 1-42 in vivo”. Also, in the test with CD45 phosphatase, the CD45 phosphatase activity entry is “leads to an increase in CD45 phosphatase activity”. Further, the “interaction between CD33 and CD45 (proximity ligation assay)” value in test [3] was “reduces the interaction between CD33 and CD45”. Further, the “amount of exogenous Amyloid-beta 1-42 in brain parenchyma” value in test [4] is recorded as “decreases the amount of exogenous Amyloid-beta 1-42 in brain”. For the same sequence, in test [5], the “neuronal survival (NeuN immunoreactivity in Layer 5 of the piriform cortex)” value was “increased neuronal survival in vivo”.
With “MESKTEKWMERI [SEQ ID NO: 2, reference compound]”, the CD45 phosphatase activity entry in the test with CD45 phosphatase is “does not”.
